The supplement of paper PMC10307832

Compound: CC1(C)CCC(CN2CCN(c3ccc(C(=O)NS(=O)(=O)c4ccc(NCC5CCOCC5)c([N+](=O)[O-])c4)c(Oc4cnc5[nH]ccc5c4)c3)CC2)=C(c2ccc(Cl)cc2)C1 [Venetoclax] + CCNC(=O)c1noc(-c2cc(C(C)C)c(O)cc2O)c1-c1ccc(CN2CCOCC2)cc1 [Luminespib] (partner 0.01 µM)
Experiment: relative viability (nuclei count vs DMSO), 5 days (fraction); higher = more cells survive
Conditions: first compound 0.01 µM
Outline: (§1)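 Five library-drug doses in √10 steps were combined with a fixed anchor-drug dose, or a single drug was given alone, by pin tool to lung cancer cell lines in 1536-well plates the day after seeding. Nuclei were stained and counted after 5 days. Relative viability is the nuclei count in treated wells over that in vehicle wells, taken as the median of duplicate plates.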

| Cell Line | relative viability |
| --- | --- |
| NCI-H2009 | 0.987 |
| SW 1573 | 0.234 |
| ABC-1 | 0.553 |
| NCI-H358 | 0.402 |
| NCI-H727 | 0.465 |
| SK-LU-1 | 0.188 |

Same assay, conditions: first compound 0.03162 µM

| Cell Line | relative viability |
| --- | --- |
| NCI-H2009 | 1.08 |
| SW 1573 | 0.152 |
| ABC-1 | 0.53 |
| NCI-H358 | 0.313 |
| NCI-H727 | 0.439 |
| SK-LU-1 | 0.21 |

Same assay, conditions: first compound 0.1 µM

| Cell Line | relative viability |
| --- | --- |
| NCI-H2009 | 0.937 |
| SW 1573 | 0.153 |
| ABC-1 | 0.689 |
| NCI-H358 | 0.245 |
| NCI-H727 | 0.209 |
| SK-LU-1 | 0.197 |

Same assay, conditions: first compound 0.3162 µM

| Cell Line | relative viability |
| --- | --- |
| NCI-H2009 | 1 |
| SW 1573 | 0.385 |
| ABC-1 | 0.431 |
| NCI-H358 | 0.579 |
| NCI-H727 | 0.303 |
| SK-LU-1 | 0.198 |

Same assay, conditions: first compound 1 µM

| Cell Line | relative viability |
| --- | --- |
| NCI-H2009 | 0.92 |
| SW 1573 | 0.215 |
| ABC-1 | 0.912 |
| NCI-H358 | 0.321 |
| NCI-H727 | 0.357 |
| SK-LU-1 | 0.197 |

Compound: CC1(C)CCC(CN2CCN(c3ccc(C(=O)NS(=O)(=O)c4ccc(NCC5CCOCC5)c([N+](=O)[O-])c4)c(Oc4cnc5[nH]ccc5c4)c3)CC2)=C(c2ccc(Cl)cc2)C1 [Venetoclax] + Cc1nc(Nc2ncc(C(=O)Nc3c(C)cccc3Cl)s2)cc(N2CCN(CCO)CC2)n1 [Dasatinib] (partner 0.075 µM)
Experiment: as above
Conditions: first compound 0.01 µM
Outline: as §1

| Cell Line | relative viability |
| --- | --- |
| NCI-H2009 | 0.37 |
| SW 1573 | 0.431 |
| ABC-1 | 0.665 |
| NCI-H358 | 0.309 |
| NCI-H727 | 0.421 |
| SK-LU-1 | 0.251 |

Same assay, conditions: first compound 0.03162 µM

| Cell Line | relative viability |
| --- | --- |
| NCI-H2009 | 0.315 |
| SW 1573 | 0.445 |
| ABC-1 | 0.655 |
| NCI-H358 | 0.17 |
| NCI-H727 | 0.357 |
| SK-LU-1 | 0.168 |

Same assay, conditions: first compound 0.1 µM

| Cell Line | relative viability |
| --- | --- |
| NCI-H2009 | 0.283 |
| SW 1573 | 0.517 |
| ABC-1 | 0.445 |
| NCI-H358 | 0.15 |
| NCI-H727 | 0.35 |
| SK-LU-1 | 0.192 |

Same assay, conditions: first compound 0.3162 µM

| Cell Line | relative viability |
| --- | --- |
| NCI-H2009 | 0.302 |
| SW 1573 | 0.599 |
| ABC-1 | 0.658 |
| NCI-H358 | 0.158 |
| NCI-H727 | 0.415 |
| SK-LU-1 | 0.191 |

Same assay, conditions: first compound 1 µM

| Cell Line | relative viability |
| --- | --- |
| NCI-H2009 | 0.266 |
| SW 1573 | 0.452 |
| ABC-1 | 0.604 |
| NCI-H358 | 0.161 |
| NCI-H727 | 0.447 |
| SK-LU-1 | 0.181 |

Compound: CC1(C)CCC(CN2CCN(c3ccc(C(=O)NS(=O)(=O)c4ccc(NCC5CCOCC5)c([N+](=O)[O-])c4)c(Oc4cnc5[nH]ccc5c4)c3)CC2)=C(c2ccc(Cl)cc2)C1 [Venetoclax] + O=C(CCCCCCC(=O)Nc1ccccc1)NO [Vorinostat] (partner 1 µM)
Experiment: as above
Conditions: first compound 0.01 µM
Outline: as §1

| Cell Line | relative viability |
| --- | --- |
| NCI-H2009 | 0.746 |
| SW 1573 | 0.712 |
| ABC-1 | 1.04 |
| NCI-H358 | 0.794 |
| NCI-H727 | 1.04 |
| SK-LU-1 | 0.771 |

Same assay, conditions: first compound 0.03162 µM

| Cell Line | relative viability |
| --- | --- |
| NCI-H2009 | 0.729 |
| SW 1573 | 0.656 |
| ABC-1 | 1.24 |
| NCI-H358 | 0.882 |
| NCI-H727 | 1.4 |
| SK-LU-1 | 0.803 |

Same assay, conditions: first compound 0.1 µM

| Cell Line | relative viability |
| --- | --- |
| NCI-H2009 | 0.758 |
| SW 1573 | 0.643 |
| ABC-1 | 1.13 |
| NCI-H358 | 0.67 |
| NCI-H727 | 1.08 |
| SK-LU-1 | 0.755 |

Same assay, conditions: first compound 0.3162 µM

| Cell Line | relative viability |
| --- | --- |
| NCI-H2009 | 0.714 |
| SW 1573 | 0.692 |
| ABC-1 | 1.32 |
| NCI-H358 | 0.697 |
| NCI-H727 | 1.12 |
| SK-LU-1 | 0.745 |

Same assay, conditions: first compound 1 µM

| Cell Line | relative viability |
| --- | --- |
| NCI-H2009 | 0.681 |
| SW 1573 | 0.572 |
| ABC-1 | 0.939 |
| NCI-H358 | 0.626 |
| NCI-H727 | 1.11 |
| SK-LU-1 | 0.719 |

Compound: Cn1cnc2c(F)c(Nc3ccc(Br)cc3Cl)c(C(=O)NOCCO)cc21 [Selumetinib] + Cc1cc(Nc2cc(N3CCN(C)CC3)nc(Sc3ccc(NC(=O)C4CC4)cc3)n2)n[nH]1 [Tozasertib] (partner 0.1 µM)
Experiment: as above
Conditions: first compound 0.02 µM
Outline: as §1

| Cell Line | relative viability |
| --- | --- |
| NCI-H2009 | 0.606 |
| SW 1573 | 0.15 |
| ABC-1 | 0.161 |
| NCI-H358 | 0.128 |
| NCI-H727 | 0.403 |
| SK-LU-1 | 0.301 |

Same assay, conditions: first compound 0.06325 µM

| Cell Line | relative viability |
| --- | --- |
| NCI-H2009 | 0.502 |
| SW 1573 | 0.145 |
| ABC-1 | 0.157 |
| NCI-H358 | 0.0891 |
| NCI-H727 | 0.357 |
| SK-LU-1 | 0.306 |

Same assay, conditions: first compound 0.2 µM

| Cell Line | relative viability |
| --- | --- |
| NCI-H2009 | 0.499 |
| SW 1573 | 0.174 |
| ABC-1 | 0.139 |
| NCI-H358 | 0.0985 |
| NCI-H727 | 0.338 |
| SK-LU-1 | 0.29 |

Same assay, conditions: first compound 0.6325 µM

| Cell Line | relative viability |
| --- | --- |
| NCI-H2009 | 0.384 |
| SW 1573 | 0.153 |
| ABC-1 | 0.135 |
| NCI-H358 | 0.0883 |
| NCI-H727 | 0.294 |
| SK-LU-1 | 0.252 |
